For the experiment, the system named is IGROV-1 cells. Briefly: Comet assay (DNA damage in single cells). Format: cell-based, human. Particulars: IGROV-1, 24 h; 100 μM for Cisplatin and Os-Gly. How it is done:
Comet assays were carried out to determine whether the complexes caused DNA damage in single cells. […] Cisplatin DNA-adducts have been shown previously to inhibit DNA migration through electrophoresis presenting as less tail movement. […] Excess dye was removed, and cells were re-suspended in PBS. Samples were analysed by flow cytometry using the BD FACSMelodyTM Cell Sorter (R653880001) and data analysis on FlowJoTM v10 Software (BD Life Sciences).9 2.11 Apoptosis IGROV-1 cells (1 x 106) were seeded in a 6-well plate and incubated for 24 h at 310 K. Stock solutions (200 μM) of the complexes were prepared by dissolving the compound in 5% (v/v) DMSO followed by dilution with DMEM and then diluted to desired concentrations. All complexes (50 μM and 100 μM) were added to the wells and incubated for 24 h. Cell pellets were collected using 0.25% trypsin and centrifuged (500 x g, 5 mins at 277 K). Cell pellets were washed with PBS and then stained with the commercial Apoptosis Detection Kit-FITC Annexin V and PI (BioLegend; San Diego, USA), as per manufacturer's instructions. Briefly, a staining solution of FITC Annexin V (1 unit/100 μL) diluted 1 in 100 and 1 μg/mL PI was added to the cells (30 min, room temperature). Excess dye was removed, and cells were re-suspended in PBS. Samples were analysed by flow cytometry using the BD FACSMelodyTM Cell Sorter (R653880001) and data analysis on FlowJoTM v10 Software (BD Life Sciences).9 2.12 Comet assay IGROV-1 cells (8×10^5 cells per well) were seeded into 6-well plates and incubated for 24 h. Test compounds (50 μM and 100 μM) were added to the wells and incubated at 3 10 K for 24 h. Cells were enzymatically detached using trypsin and cell concentration adjusted to 2×10^4 cells /mL in ice-cold PBS. 0.4 mL of cell suspension was added to 1.2 mL of 1% low melting point agarose in H 2O, then immediately added to microscope slides pre -coated in 1% agarose. […] Twenty comet images per sample were taken by confocal microscopy and analysed by OpenComet. […]

Regarding [(p-cymene)Os(L-BSO)Cl] [Os-LBSO], the “Comet tails vs untreated cells” value is “trend toward longer comet tails but this was not significant”.

The values are drawn from article PMC12728982, “Multichiral Half-Sandwich Ru(II) and Os(II) Anticancer Complexes Containing a Glutathione Synthesis Inhibitor” (Organometallics, 2025).
